Measurements: patent US20220186188A1, “Method for Obtaining Pancreatic Progenitor Cells and Pancreatic Islet Beta Cells By Means of Differentiation of Human Pluripotent Stem Cells” (Asia Regenerative Medicine, Ltd., priority 2019, published 2022)

Key:
[1] = tested on: pancreatic progenitor cells differentiated from human induced pluripotent stem cells; test: Flow cytometry detection of PDX1 in the pancreatic progenitor cell stage (human induced pluripotent stem cells); format: cell-based; conditions: 2 μM inhibitor in pancreatic progenitor cell medium, 5 days, compared with control group without WNT inhibitor
Protocol: a pancreatic progenitor cell medium was prepared, the medium in step 1) was replaced with the pancreatic progenitor cell medium, and the cells were cultured in a carbon dioxide incubator at 37 degrees Celsius for 5 days, during which the medium was replaced every day, wherein the composition of the pancreatic progenitor cell medium was: with an MCDB131 medium as a basic medium, and the following components at the working concentrations were further included: 0.5% of bovine serum albumin (BSA), 1.5 g/L of sodium bicarbonate, 1×glutamine (GlutaMAX), 10 mM glucose, […] vitamin C, 1×insulin-transferrin-selenium-ethanolamine additive (ITS-X), 50 ng/ml of fibroblast growth factor (KGF), 0.5 μM SANT1 (with smo as an inhibitor target), 100 nM retinoic acid (TTNPB), 500 nM phorbol 12,13-dibutyrate (PDBu), 2 μM ALK inhibitor (K02288), and 2 μM WNT signaling pathway inhibitor XAV-939 (not added in a control group), with the concentrations all being final concentrations. […]

[2] = tested on: pancreatic progenitor cells and pancreatic islet β cells differentiated from human induced pluripotent stem cells; test: Immunofluorescence detection of PDX1 and PDX1/INS proteins (human induced pluripotent stem cells); format: cell-based
From the text: […]

[3] = 2 μM inhibitor in pancreatic progenitor cell stage

Oc1nc(-c2ccc(C(F)(F)F)cc2)nc2c1CSCC2 [XAV-939]
PDX1-positive pancreatic progenitor cells (flow cytometry) [1]: significantly increased | number of insulin INS-positive and PDX1-co-stained pancreatic islet β cells in the mature pancreatic islet β cell stage ([2]; 2 μM inhibitor added in pancreatic progenitor cell stage, immunofluorescence): significantly increased | PDX1-positive pancreatic progenitor cells (immunofluorescence) [2, 3]: significantly increased | cell growth (total cell number by DAPI) [2, 3]: did not affect the cell growth
